Columns and labels:
[1] = tested on: human keratinocyte cell line (HaCaT); test: Cytokine secretion on protein level in activated human keratinocyte cell line HaCaT (13-plex FACS / Luminex, supernatant); assay type: cell-based; details: substance 10^−9M
Protocol: (§1) Primary T-cells were isolated from peripheral blood from healthy volunteers and from secondary lymphatic organs from naïve C57BL/6 mice, respectively. The cells were stimulated with phorbol-12-myristate-13-acetate (PMA)/Ionomycin and interferon-gamma (IFN-γ), respectively, for 48 h to activate the cells. The activated cells release pro-inflammatory cytokines. In parallel a human (HaCaT) keratinocyte cell line was activated with PMA/Ionomycin and IFN-γ, respectively, too. […] At the same time release of anti-inflammatory IL-10 was inhibited. Two days after addition of PMA/Ionomycin and IFN-γ, respectively, the induction of IL-1 secretion was determined in the supernatant for proving that the cells are activated. […] The anti-inflammatory properties of the tripeptides were determined 48 h and 72 h following stimulation. A 13-plex-system based FACS analysis was used for showing the reduced secretion of pro-inflammatory cytokines in the supernatant. Data for IL-1, IL-2, IL-6, IL-12p70 IL-17, IFN-γ and TNF-α are considered to be most relevant. Thus, analysis of the anti-inflammatory properties of the tripeptides is preferably based on the results obtained for these analytes. […] Using this method the gene expression of pro-inflammatory markers like IL-6, IL-17, IFN-γ and TNF-α was determined.
In a third experiment murine and human T cells and HaCaT cells were stimulated with PMA/Ionomycin and treated with Examples 14, 15, 16 and 17 at 10^−7 M, 10^−9 M and 10^−11 M. Cytokine concentrations (IFN-γ, IL-17 and IL-10 for T cells and IFN-γ for HaCat) were assessed in the supernatants using the Luminex technology. Expression of genes coding for Il-1β, IL-6 and TNF-α was determined. […] Moreover, concentrations of pro-inflammatory cytokines IFN-γ and IL-17 was reduced in the supernatants whereas the concentration of anti-inflammatory cytokine IL-10 was increased. […]
For the biological assay two human cell lines of different origin were chosen to allow for translation of the results obtained. A HaCaT cell is a cell type belonging to an immortal human keratinocyte line used in scientific research. Its use in research allows for the characterization of human keratinocyte using a model that is reproducible and representing a human epithelial cell line. In contrast human T-lymphocytes (T-cells) are a type of lymphocyte (itself a type of white blood cell) that play a central role in cell-mediated inflammation/immunity.

primary murine T-cells = test: Cytokine secretion on protein level in activated primary murine T-cells (13-plex FACS / Luminex, supernatant); assay type: cell-based, C57BL/6 mice; details: substance 10^−9M
Protocol: as §1
In a third experiment murine and human T cells and HaCaT cells were stimulated with PMA/Ionomycin and treated with Examples 14, 15, 16 and 17 at 10^−7 M, 10^−9 M and 10^−11 M. Cytokine concentrations (IFN-γ, IL-17 and IL-10 for T cells and IFN-γ for HaCat) were assessed in the supernatants using the Luminex technology. Expression of genes coding for Il-1β, IL-6 and TNF-α was determined. […] Moreover, concentrations of pro-inflammatory cytokines IFN-γ and IL-17 was reduced in the supernatants whereas the concentration of anti-inflammatory cytokine IL-10 was increased.
The anti-inflammatory and immunomodulatory effects of selected examples of the present invention were compared with common immunosuppressants. Thus, cells activated with PMA/Ionomycin and IFN-γ, respectively, were stimulated with MMF or dexamethasone. Following stimulation the secretion of pro-inflammatory cytokines was analyzed on protein and gene level (Table 9 and FIGS. 4-6).

[2] = HaCaT stimulated with PMA/Ionomycin
[3] = primary murine T-cells stimulated with IFN-γ
[4] = primary murine T-cells stimulated with PBS
[5] = primary murine T-cells stimulated with PMA/Ionomycin

H-(L)-Lys-(L)-Pro-Alb-NH2 [Example 10] was tested, and the IL-10 cytokine concentration ([1]; HaCaT stimulated with PBS) was 0 pg/mL, the IL-12p70 cytokine concentration ([1]; HaCaT stimulated with PBS) was 0 pg/mL and the IL-13 cytokine concentration ([1]; HaCaT stimulated with PBS) was 1864.02 pg/mL. The IL-17 cytokine concentration ([1]; HaCaT stimulated with PBS) was 230.84 pg/mL, the IL-22 cytokine concentration ([1]; HaCaT stimulated with PBS) was 0 pg/mL and the TNF-α cytokine concentration ([1]; HaCaT stimulated with PBS) was 0 pg/mL. The IFN-γ cytokine concentration [1, 2] was 327.78 pg/mL, the IL-1 cytokine concentration [1, 2] was 251.13 pg/mL and the IL-2 cytokine concentration [1, 2] was 189.17 pg/mL. For the same substance, the IL-4 cytokine concentration [1, 2] was 0 pg/mL, the IL-5 cytokine concentration [1, 2] was 0 pg/mL and the IL-6 cytokine concentration [1, 2] was 315.82 pg/mL. It also gave an IL-9 cytokine concentration [1, 2] of 14.67 pg/mL, an IL-10 cytokine concentration [1, 2] of 34.84 pg/mL and an IL-12p70 cytokine concentration [1, 2] of 0 pg/mL. It also gave an IL-13 cytokine concentration [1, 2] of 0 pg/mL, an IL-17 cytokine concentration [1, 2] of 45.41 pg/mL and an IL-22 cytokine concentration [1, 2] of 0 pg/mL. The TNF-α cytokine concentration [1, 2] was 53.51 pg/mL, the IL-1 cytokine concentration (primary murine T-cells; [3]) was 77.81 pg/mL and the IL-2 cytokine concentration (primary murine T-cells; [3]) was 93.19 pg/mL. For the same substance, the IL-4 cytokine concentration (primary murine T-cells; [3]) was 81.11 pg/mL, the IL-5 cytokine concentration (primary murine T-cells; [3]) was 238.38 pg/mL and the IL-6 cytokine concentration (primary murine T-cells; [3]) was 139.83 pg/mL. The IL-10 cytokine concentration (primary murine T-cells; [3]) was 2024.06 pg/mL, the IL-13 cytokine concentration (primary murine T-cells; [3]) was 0 pg/mL and the IL-17 cytokine concentration (primary murine T-cells; [3]) was 0 pg/mL. The IL-21 cytokine concentration (primary murine T-cells; [3]) was 0 pg/mL, the IL-22 cytokine concentration (primary murine T-cells; [3]) was 57.35 pg/mL and the IL-27 cytokine concentration (primary murine T-cells; [3]) was 1.29 pg/mL. For the same substance, the TNF-α cytokine concentration (primary murine T-cells; [3]) was 32.42 pg/mL, the IFN-γ cytokine concentration (primary murine T-cells; [4]) was 0 pg/mL and the IL-1 cytokine concentration (primary murine T-cells; [4]) was 66.84 pg/mL. For the same substance, the IL-2 cytokine concentration (primary murine T-cells; [4]) was 132.67 pg/mL, the IL-4 cytokine concentration (primary murine T-cells; [4]) was 65.63 pg/mL and the IL-5 cytokine concentration (primary murine T-cells; [4]) was 229.8 pg/mL. It also gave an IL-6 cytokine concentration (primary murine T-cells; [4]) of 177.95 pg/mL, an IL-10 cytokine concentration (primary murine T-cells; [4]) of 923.65 pg/mL and an IL-13 cytokine concentration (primary murine T-cells; [4]) of 0 pg/mL. For the same substance, the IL-17 cytokine concentration (primary murine T-cells; [4]) was 0 pg/mL, the IL-21 cytokine concentration (primary murine T-cells; [4]) was 0 pg/mL and the IL-22 cytokine concentration (primary murine T-cells; [4]) was 71.47 pg/mL. For the same substance, the IL-27 cytokine concentration (primary murine T-cells; [4]) was 0 pg/mL, the TNF-α cytokine concentration (primary murine T-cells; [4]) was 77.08 pg/mL and the IFN-γ cytokine concentration (primary murine T-cells; [5]) was 2377.98 pg/mL. It also gave an IL-1 cytokine concentration (primary murine T-cells; [5]) of 173.61 pg/mL, an IL-2 cytokine concentration (primary murine T-cells; [5]) of 179.75 pg/mL and an IL-4 cytokine concentration (primary murine T-cells; [5]) of 56.84 pg/mL. The IL-5 cytokine concentration (primary murine T-cells; [5]) was 267.52 pg/mL, the IL-6 cytokine concentration (primary murine T-cells; [5]) was 164.16 pg/mL and the IL-10 cytokine concentration (primary murine T-cells; [5]) was 1182.68 pg/mL. For the same substance, the IL-13 cytokine concentration (primary murine T-cells; [5]) was 0 pg/mL, the IL-17 cytokine concentration (primary murine T-cells; [5]) was 86.12 pg/mL and the IL-21 cytokine concentration (primary murine T-cells; [5]) was 0 pg/mL. For the same substance, the IL-22 cytokine concentration (primary murine T-cells; [5]) was 44.47 pg/mL, the IL-27 cytokine concentration (primary murine T-cells; [5]) was 8.48 pg/mL and the TNF-α cytokine concentration (primary murine T-cells; [5]) was 33.37 pg/mL.
